Experiments:
Format in all cases: cell-based
[1] = system: Staphylococcus aureus ATCC 6538P; assay: MIC, Staphylococcus aureus ATCC 6538P (SA(1)); details: Staphylococcus aureus ATCC 6538P; for MIC: Staphylococcus aureus, ATCC6538P, read-out: MIC SA (1)
Excerpt: (§1) The minimum inhibitory concentrations (MIC: mcg/ml) of the erythromycin derivatives of the present invention and the control erythromycin derivative (*) as the known growth promoting agent on typical test bacteria are shown in the following Tables 1 to 5.
SA(1): Staphylococcus aureus ATCC 6538P

Bacillus subtilis = assay: MIC, Bacillus subtilis (BS); details: for MIC: read-out: MIC BS
[2] = system: Klebsiella pneumoniae ATCC 10031; assay: MIC, Klebsiella pneumoniae ATCC 10031 (KP); details: Klebsiella pneumoniae ATCC 10031; for MIC: ATCC10031, read-out: MIC KP
[3] = system: Staphylococcus aureus FDA 209P; assay: MIC, Staphylococcus aureus FDA 209P (SA(2)); details: Staphylococcus aureus FDA 209P; for MIC: Staphylococcus aureus, FDA209P, read-out: MIC SA (2)
Excerpt: as §1
SA(2): Staphylococcus aureus FDA 209P

Bacillus cereus IFO 3001 = assay: MIC, Bacillus cereus IFO 3001 (BC); details: for MIC: Bacillus cereus, IFO3001, Bacillus cereus IFO 3001, read-out: MIC BC
Escherichia coli NIHJ = assay: MIC, Escherichia coli NIHJ (EC)

## CCC1OC(=O)C(C)C(OC2CC(C)(OC)C(O)C(C)O2)C(C)C(OC2OC(C)CC([N+](C)(C)C)C2O)C2(C)CC(C)=C(O2)C(C)C(OS(C)(=O)=O)C1(C)O (stereo not drawn) [Compound 3]
[1]
  MIC: > 100 µg/mL
Bacillus subtilis
  MIC: > 100 µg/mL
[2]
  MIC: > 100 µg/mL
[3]
  MIC: > 100 µg/mL
Bacillus cereus IFO 3001
  MIC: > 100 µg/mL
Escherichia coli NIHJ
  MIC: > 100 µg/mL

## C#CC[N+](C)(C)C1CC(C)OC(OC2C(C)C(OC3CC(C)(OC)C(O)C(C)O3)C(C)C(=O)OC(CC)C(C)(O)C(O)C(C)C3=C(C)CC2(C)O3)C1O (stereo not drawn) [Compound 51]
[1]
  MIC SA (1): > 100 µg/mL
Bacillus subtilis
  MIC BS: > 100 µg/mL
[2]
  MIC KP: > 100 µg/mL
[3]
  MIC SA (2): > 100 µg/mL
Bacillus cereus IFO 3001; Bacillus cereus IFO 3001
  MIC BC: > 100 µg/mL
Escherichia coli NIHJ
  MIC EC: > 100 µg/mL

## CCC1OC(=O)C(C)C(OC2CC(C)(OC)C(O)C(C)O2)C(C)C(OC2OC(C)CC([N+](C)(C)CC(=O)OC)C2O)C2(C)CC(C)=C(O2)C(C)C(O)C1(C)O (stereo not drawn) [Compound 30]
[1]
  MIC: > 100 µg/mL
Bacillus subtilis
  MIC: > 100 µg/mL
[2]
  MIC: > 100 µg/mL
[3]
  MIC: > 100 µg/mL
Bacillus cereus IFO 3001
  MIC: > 100 µg/mL
Escherichia coli NIHJ
  MIC: > 100 µg/mL

## CC[C@H]1OC(=O)[C@H](C)[C@@H](O[C@H]2C[C@@](C)(OC)[C@@H](O)[C@H](C)O2)[C@H](C)[C@@H](O[C@@H]2O[C@H](C)C[C@H]([N+](C)(C)CC)[C@H]2O)[C@@]2(C)CC(C)=C(O2)[C@H](C)[C@@H](O)C1C (stereo partly drawn) [Compound 74]
[1]
  MIC: 100 µg/mL
Bacillus subtilis
  MIC: > 100 µg/mL
[2]
  MIC: > 100 µg/mL
[3]
  MIC: 100 µg/mL
Bacillus cereus IFO 3001
  MIC: 100 µg/mL
Escherichia coli NIHJ
  MIC: > 100 µg/mL

## CC[C@H]1OC(=O)[C@H](C)[C@@H](O[C@H]2C[C@@](C)(OC)[C@@H](O)[C@H](C)O2)[C@H](C)[C@@H](O[C@@H]2O[C@H](C)C[C@H](N(C)CC)[C@H]2O)[C@@]2(C)CC(C)C(O2)[C@H](C)[C@@H](O)[C@]1(C)O (stereo partly drawn) [Compound 69]
[1]
  MIC: > 100 µg/mL
Bacillus subtilis
  MIC: > 100 µg/mL
[2]
  MIC: > 100 µg/mL
[3]
  MIC: > 100 µg/mL
Bacillus cereus IFO 3001
  MIC: > 100 µg/mL
Escherichia coli NIHJ
  MIC: > 100 µg/mL

## CC[C@H]1OC(=O)[C@H](C)[C@@H](O[C@H]2C[C@@](C)(OC)[C@@H](O)[C@H](C)O2)[C@H](C)[C@@H](O[C@@H]2O[C@H](C)C[C@H]([N+](C)(C)C)[C@H]2O)[C@@]2(C)CC(C)C(O2)[C@H](C)[C@@H](O)[C@]1(C)O (stereo partly drawn) [Compound 62]
[1]
  MIC: > 100 µg/mL
Bacillus subtilis
  MIC: > 100 µg/mL
[2]
  MIC: > 100 µg/mL
[3]
  MIC: > 100 µg/mL
Bacillus cereus IFO 3001
  MIC: > 100 µg/mL
Escherichia coli NIHJ
  MIC: > 100 µg/mL

## C=CCN(CC=C)C1CC(C)OC(OC2C(C)C(OC3CC(C)(OC)C(O)C(C)O3)C(C)C(=O)OC(CC)C(C)(O)C(O)C(C)C3=C(C)CC2(C)O3)C1O (stereo not drawn) [Compound 38]
[1]
  MIC: > 100 µg/mL
Bacillus subtilis
  MIC: > 100 µg/mL
[2]
  MIC: > 100 µg/mL
[3]
  MIC: > 100 µg/mL
Bacillus cereus IFO 3001
  MIC: > 100 µg/mL
Escherichia coli NIHJ
  MIC: > 100 µg/mL

## C=CC[N+](C)(C)[C@H]1C[C@@H](C)O[C@@H](O[C@@H]2[C@@H](C)[C@H](O[C@H]3C[C@@](C)(OC)[C@@H](O)[C@H](C)O3)[C@@H](C)C(=O)O[C@H](CC)[C@@](C)(O)[C@H](O)[C@@H](C)C(=O)[C@H](C)C[C@@]2(C)O)[C@@H]1O [Compound 77]
[1]
  MIC: 25 µg/mL
Bacillus subtilis
  MIC: 12.5 µg/mL
[2]
  MIC: > 100 µg/mL
[3]
  MIC: 50 µg/mL
Bacillus cereus IFO 3001
  MIC: 12.5 µg/mL
Escherichia coli NIHJ
  MIC: > 100 µg/mL

## C#CC[N+](C)(C)[C@H]1C[C@@H](C)O[C@@H](O[C@@H]2[C@@H](C)[C@H](O[C@H]3C[C@@](C)(OC)[C@@H](OC=O)[C@H](C)O3)[C@@H](C)C(=O)O[C@H](CC)[C@@](C)(O)[C@H](O)[C@@H](C)C3=C(C)C[C@@]2(C)O3)[C@@H]1O [Compound 60]
[1]
  MIC: > 100 µg/mL
Bacillus subtilis
  MIC: > 100 µg/mL
[2]
  MIC: > 100 µg/mL
[3]
  MIC: > 100 µg/mL
Bacillus cereus IFO 3001
  MIC: > 100 µg/mL
Escherichia coli NIHJ
  MIC: > 100 µg/mL

## CCC1OC(=O)C(C)C(OC2CC(C)(OC)C(O)C(C)O2)C(C)C(OC2OC(C)CC(N(C)CCO)C2O)C2(C)CC(C)=C(O2)C(C)C(O)C1(C)O (stereo not drawn) [Compound 37]
[1]
  MIC: > 100 µg/mL
Bacillus subtilis
  MIC: > 100 µg/mL
[2]
  MIC: > 100 µg/mL
[3]
  MIC: > 100 µg/mL
Bacillus cereus IFO 3001
  MIC: > 100 µg/mL
Escherichia coli NIHJ
  MIC: > 100 µg/mL

Source: US4948782A, “A method of promoting the growth of domestic animals with erythromycin derivative containing composition” (Kitasato Kenkyusho, priority 1987, dated 1990)
